A short description of data set [1]: in vitro liver microsome metabolic stability, human. It is filed as in vitro ADME. The conditions noted are these: Human liver microsomes, 37°C. As to the method:
(§1) Preparation of working solutions for test compounds and standards: An appropriate amount of the compound was accurately weighed and dissolved in a corresponding volume of suitable solvent to prepare 1 mM stock solutions of the test compounds and standards. The stock solutions were then diluted with appropriate solvent to obtain 100 µM working solutions of the test compounds, ensuring that the DMSO content in the working solutions remained below 10%.
(§2) The internal standard compound testosterone (or tolbutamide) and its corresponding solvent, internal standard concentration (200 ng/mL), were selected based on the properties of the test compound.
(§3) • Solution A: 0.1 mol/L K2HPO4 (2.28 g K2HPO4·3H2O was dissolved in 100 mL of double-distilled water); • Solution B: 0.1 mol/L KH2PO4 (1.36 g KH2PO4 was dissolved in 100 mL of double-distilled water); • 80.2 mL of Solution A and 19.8 mL of Solution B were mixed thoroughly, and the pH was adjusted to 7.4.
(§4) 37.5 mg of glycine was weighed, dissolved in 100 mL of ultrapure water, and adjusted to pH 8.0 with NaOH.
(§5) 1.25 mg of glucose-6-phosphate dehydrogenase (400 U/mg) was weighed (the specific amount weighed was calculated based on the activity of the purchased glucose-6-phosphate dehydrogenase), dissolved in 1 mL of glycine buffer to a concentration of 500 U/mL, aliquoted into 20 µL per tube, and stored at -20°C for future use.
(§6) 7.83 mg of NADP, 0.06 mL of D-glucose-6-phosphate (260 mg/mL), and 10.17 mg of MgCl2·6H2O were precisely weighed.
(§7) The mixture was dissolved in 1 mL of pure water. The cofactor ratio composition: NADP 10 mM, D-glucose-6-phosphate 60 mM, MgCl2·6H2O 50 mM.
(§8) The reaction system (taking a 500 µL system as an example) was composed of the following solution ratios: 416.5 µL phosphate buffer, 5 µL compound working solution, 25 µL liver microsomes, 3.5 µL glucose-6-phosphate dehydrogenase, and 50 µL cofactor solution. The total incubation volume could be adjusted according to experimental requirements.
(§9) 416.5 µL of phosphate buffer was taken, 25 µL of liver microsomes, 3.5 µL of glucose-6-phosphate dehydrogenase, and 50 µL of cofactor solution were added, vortexed twice to mix, and preincubated in a 37°C water bath for 5 minutes. Then, 5 µL of the test compound working solution was added, vortexed twice to mix, each time for 2-3 seconds, and placed in a 37°C water bath to initiate the reaction, with two parallel samples set. At 0.5 min, 1 min, 2 min, 5 min, 15 min, and 30 min after the reaction, 50 µL of the mixture was taken and added to centrifuge tubes containing 200 µL of 0°C pre-cooled internal standard working solution to terminate the reaction, vortexed for 1 minute to mix, and centrifuged at 13,000 rpm for 10 minutes in a 4°C pre-cooled high-speed centrifuge. The supernatant was collected for analysis. After the compound was added and vortex-mixed, 50 µL of the mixture was rapidly transferred to a centrifuge tube containing 200 µL of a pre-cooled (0°C) internal standard working solution to terminate the reaction, vortex-mixed for 1 minute, and used as the relative zero-point sample (relative to the standard group). The sample was then placed into a 37°C water bath to initiate the reaction, and timing was started.
(§10) The sample analysis of the test compound was performed using the liquid chromatography-tandem mass spectrometry (LCMS/MS) method. The semi-quantitative determination was performed using the ratio of the analyte peak area to the internal standard peak area. The retention times of the analyte and internal standard, chromatogram acquisition, and chromatogram integration were processed using Analyst software.
(§11) The in vitro elimination rate constant k of the test compound and the control compound was determined by converting the ratio of the peak area of the test compound to the internal standard into the remaining rate, and T1/2 was then calculated according to the following formula. T1/2 = (Ln2)/(k) = (0.693)/(k) [formula] Table 3. […]

Data set [2] in a line: in vitro liver microsome metabolic stability, rat. To be noted: Rat liver microsomes, 37°C. The data set is classed as in vitro ADME. The method, then:
as §1, §2, §3, §4, §5, §6, §7, §8, §9, §10, §11
For orientation: Liver microsomes are vesicles of endoplasmic reticulum, rich in cytochrome P450 enzymes.

Another data set deals with T1, human CCR6 (Homo sapiens, UniProt P51684).
T1 construct: expressed in transfected cells; host or cells: HEK293
T1 sequence (P51684 1-374): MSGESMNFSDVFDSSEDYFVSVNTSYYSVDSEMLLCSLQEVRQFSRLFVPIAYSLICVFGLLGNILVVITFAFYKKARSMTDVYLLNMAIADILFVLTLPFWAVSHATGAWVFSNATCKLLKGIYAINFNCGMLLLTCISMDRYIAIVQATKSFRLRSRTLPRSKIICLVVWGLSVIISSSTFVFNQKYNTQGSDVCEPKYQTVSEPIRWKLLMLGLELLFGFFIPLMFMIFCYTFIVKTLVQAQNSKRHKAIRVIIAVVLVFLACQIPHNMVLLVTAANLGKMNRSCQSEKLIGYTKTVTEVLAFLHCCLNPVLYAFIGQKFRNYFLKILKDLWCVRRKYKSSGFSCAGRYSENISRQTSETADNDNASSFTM
Kind of data set: human CCR6 calcium flux activity (FLIPR, HEK293 cells stably expressing human CCR6, CCL20 stimulation). It is filed as cell-based. To be noted: for IC50: HEK293 cells stably expressing human CCR6, EC80 human MIP-3 alpha/CCL20, read-out: CCR6 inhibitory activity, IC50; for CCR6 selectivity: ratio of CXCR2 IC50 to CCR6 IC50. An outline of the steps:
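Compounds preincubated with Fluo-4 Direct-loaded cells 50 min at 37 °C, then 10 min at room temperature, before CCL20 challenge at EC80. Fluorescence (ex 494/em 516 nm) recorded 90 s; max−min signal gives inhibition, four-parameter fit yields IC50.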
(Calcium flux is commonly read through the fluorescence of an indicator in the cells.)

The nature of data set [3]: in vitro liver microsome metabolic stability, beagle dog. The data set is classed as in vitro ADME. The conditions noted are these: Beagle dog liver microsomes, 37°C. As to the method:
as §1, §2, §3, §4, §5, §6, §7, §8, §9, §10, §11

A further data set concerns the target T2, human CXCR2 (Homo sapiens, UniProt P25025).
T2 construct: expressed in transfected cells; host or cells: HEK293
T2 sequence (P25025 1-360): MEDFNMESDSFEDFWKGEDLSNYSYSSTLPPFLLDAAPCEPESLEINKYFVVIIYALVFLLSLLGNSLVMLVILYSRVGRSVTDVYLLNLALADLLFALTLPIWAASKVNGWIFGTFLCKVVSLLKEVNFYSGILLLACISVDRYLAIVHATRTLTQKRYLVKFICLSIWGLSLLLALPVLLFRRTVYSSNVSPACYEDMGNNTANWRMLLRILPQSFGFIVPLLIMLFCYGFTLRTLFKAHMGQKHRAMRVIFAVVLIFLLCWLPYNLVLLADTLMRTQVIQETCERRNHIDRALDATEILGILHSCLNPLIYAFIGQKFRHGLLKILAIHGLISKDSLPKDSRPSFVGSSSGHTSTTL
The data set can be described thus: human CXCR2 calcium flux activity (FLIPR, HEK293 cells stably expressing human CXCR2, IL-8 stimulation). To be noted: HEK293 cells stably expressing human CXCR2, EC80 human IL-8; read-out: CXCR2 inhibitory activity, IC50. It is filed as cell-based. As to the method: The activity of the compounds was evaluated using HEK293 cells stably expressing human CXCR2 via the FLIPR platform. A 384-well black cell culture plate (Greiner, 781946) was used, with a seeding density of 20,000 cells/well, and incubated overnight at 37°C in a 5% CO2 incubator. The culture medium in the cell plate wells was removed, and 20 µL of Fluo-4 Direct™ Calcium Assay Buffer (Invitrogen, F10471, Component C), 20 µL of 2× Fluo-4 Direct™ Calcium Assay Reagent (Invitrogen, F10471, Component A) working solution, and 10 µL of 6× test compound working solution were sequentially added to each well. The cell plate was incubated in a 37 °C, 5% CO2 incubator for 50 min, followed by a 10 min incubation at room temperature. Additionally, a 6×EC80 human IL-8 (Sigma, SRP3311) working solution was prepared. After the incubation was completed, 10 µL/well of the 6×EC80 human IL-8 working solution was transferred to the corresponding cell wells using a FLIPR instrument, and the fluorescence signal changes at an excitation wavelength of 494 nm and an emission wavelength of 516 nm were recorded over 130 s. The difference between the maximum fluorescence signal (RFUMax) and the minimum fluorescence signal (RFUMin) was used as the output signal. The compound inhibition rate and the log value of the compound concentration were calculated, and a four-parameter fitting analysis was performed using GraphPad Prism 8 software to obtain the IC50 value of the test compound. Table 1. Inhibitory activity data of compounds against CCR6 and CXCR2

Consider `CN(C)C(=O)c1nccc(Nc2c(N[C@@H](c3ccc(Cl)cn3)C3(C)CCCC3)c(=O)c2=O)c1O` [compound 013, (R)-4-((2-(((5-chloropyridin-2-yl)(1-methylcyclopentyl)methyl)amino)-3,4-dioxocyclobut-1-en-1-yl)amino)-3-hydroxy-N,N-dimethylpicolinamide], for which the “Liver microsome T1-2 (min) Human” value in data set [1] worked out at 345.84 min. Besides, in data set [2], the “Liver microsome T1-2 (min) Rat” value stood at 54.23 min. In addition, the concentration for half-maximal inhibition (IC50) (as a rule, the concentration that gives 50% inhibition) on human CCR6 stood at 19.3 nM. Besides, the “Liver microsome T1-2 (min) Beagle dog” value in data set [3] worked out at 252.63 min.

For `Cc1ccc(F)nc1[C@H](Nc1c(Nc2ccnc(C(=O)N(C)C)c2O)c(=O)c1=O)C1(C)CCCC1` [compound 014, (R)-4-((2-(((6-fluoro-3-methylpyridin-2-yl)(1-methylcyclopentyl)methyl)amino)-3,4-dioxocyclobut-1-en-1-yl)amino)-3-hydroxy-N,N-dimethylpicolinamide], the IC50 on human CXCR2 was found to be 6740 nM. Moreover, on human CCR6, the half-inhibitory concentration (IC50) is 14.3 nM and the CCR6 selectivity is recorded as 471.4.

Turning to `CN(C)C(=O)c1nccc(Nc2c(N[C@@H](c3ncccc3CF)C3(C)CCCC3)c(=O)c2=O)c1O` [compound 016, (R)-4-((2-(((3-(fluoromethyl)pyridin-2-yl)(1-methylcyclopentyl)methyl)amino)-3,4-dioxocyclobut-1-en-1-yl)amino)-3-hydroxy-N,N-dimethylpicolinamide], on human CXCR2, the IC50 was 27600 nM. At human CCR6, the half-inhibitory concentration (IC50) worked out at 55.8 nM and the CCR6 selectivity amounted to 494.9.

As to `CN(C)C(=O)c1nccc(Nc2c(N[C@@H](c3ncccc3Cl)C3(C)CCCC3)c(=O)c2=O)c1O` [compound 019, (R)-4-((2-(((3-chloropyridin-2-yl)(1-methylcyclopentyl)methyl)amino)-3,4-dioxocyclobut-1-en-1-yl)amino)-3-hydroxy-N,N-dimethylpicolinamide], the half-maximal inhibitory concentration (IC50) on human CXCR2 was found to be 1820 nM. On human CCR6, the IC50 came to 5 nM and the CCR6 selectivity is 364.2.

Consider `CN(C)C(=O)c1nccc(Nc2c(N[C@@H](c3nc(F)ccc3Cl)C3(C)CCCC3)c(=O)c2=O)c1O` [compound 025, (R)-4-((2-(((3-chloro-6-fluoropyridin-2-yl)(1-methylcyclopentyl)methyl)amino)-3,4-dioxocyclobut-1-en-1-yl)amino)-3-hydroxy-N,N-dimethylpicolinamide], for which, on human CXCR2, the IC50 was 791 nM. In addition, at human CCR6, the half-maximal inhibitory concentration (IC50) is 2.8 nM and the CCR6 selectivity turned out to be 282.4.

On to `Cc1ccc(C)c([C@H](Nc2c(Nc3ccnc(C(=O)N(C)C)c3O)c(=O)c2=O)C2(C)CCCC2)n1` [compound 051, (R)-4-((2-(((3,6-dimethylpyridin-2-yl)(1-methylcyclopentyl)methyl)amino)-3,4-dioxocyclobut-1-en-1-yl)amino)-3-hydroxy-N,N-dimethylpicolinamide], for which the half-inhibitory concentration (IC50) at human CXCR2 is 31400 nM. Besides, at human CCR6, the IC50 worked out at 12.7 nM and the CCR6 selectivity is 2469.1.

As for `CC1([C@@H](Nc2c(Nc3ccnc(C(=O)N4CCOCC4)c3O)c(=O)c2=O)c2nc(F)ccc2F)CCCC1` [compound 060, (R)-3-(((3,6-difluoropyridin-2-yl)(1-methylcyclopentyl)methyl)amino)-4-((3-hydroxy-2-(morpholine-4-carbonyl)pyridin-4-yl)amino)cyclobut-3-ene-1,2-dione], the IC50 at human CXCR2 was 393 nM. Further, on human CCR6, the IC50 is 1.9 nM and the CCR6 selectivity is listed as 207.0.

In the case of `Cc1nccnc1[C@H](Nc1c(Nc2ccc(Cl)c(C(=O)N(C)C)c2O)c(=O)c1=O)C1(C)CCCC1` [compound 078, (R)-6-chloro-2-hydroxy-N,N-dimethyl-3-((2-(((1-methylcyclopentyl)(3-methylpyrazin-2-yl)methyl)amino)-3,4-dioxocyclobut-1-en-1-yl)amino)benzamide], the “Liver microsome T1-2 (min) Human” value in data set [1] worked out at 1014.44 min. For the same compound, in data set [2], the “Liver microsome T1-2 (min) Rat” value worked out at 53.62 min. Also, the IC50 at human CCR6 came to 56.2 nM. The “Liver microsome T1-2 (min) Beagle dog” value in data set [3] came out at 1869.75 min.

Take `CC#CC(Nc1c(Nc2ccnc(C(=O)N(C)C)c2O)c(=O)c1=O)C1(C)CCC(F)(F)C1` (stereo not drawn) [compound 111, 4-((2-((1-(3,3-difluoro-1-methylcyclopentyl)but-2-yn-1-yl)amino)-3,4-dioxocyclobut-1-en-1-yl)amino)-3-hydroxy-N,N-dimethylpicolinamide]: the “Liver microsome T1-2 (min) Human” value in data set [1] is 548.28 min. For the same compound, the “Liver microsome T1-2 (min) Rat” value in data set [2] was 266.64 min. Besides, the concentration for half-maximal inhibition (IC50) on human CCR6 worked out at 106 nM. Moreover, the “Liver microsome T1-2 (min) Beagle dog” value in data set [3] is 982.5 min.

Values taken from patent publication EP4703354A1, “COMPOUND AS CCR6 ANTAGONIST, AND PHARMACEUTICAL COMPOSITION AND USE THEREOF” (Wuhan Createrna Science and Technology Co.,Ltd., priority 2023, dated 2024).
